From US20190142800A1, “SYNERGISTIC ANTIFUNGAL COMPOSITIONS AND METHODS THEREOF” (VYOME THERAPEUTICS LIMITED, priority 2016, published 2019)
Each block holds one compound with its values, some of them ahead of it.

Key:
M. furfur (MTCC 1374) = assay: Lipid assimilation in vitro assay: fatty acids/esters as nutrients for growth of M. furfur; assay type: cell-based, Malassezia furfur; conditions: Sabouraud dextrose agar, after 6 days
Text: Malassezia species are lipophilic unipolar yeasts recognized as commensals of skin that may be pathogenic under certain conditions (Jindo et al 2004: Indian Journal of Medical Microbiology (22: 179). To compare lipid requirements of the fungus most closely associated with dandruff/seborrheic dermatitis, the best studied Malassezia species is M. furfur. Lipid assimilation in vitro assay was designed to investigate lipid effect on growth of M. furfur (MTCC 1374).
Briefly, Sabouraud Dextrose containing low-melt agar was melted, cooled to 38° C. Fatty acids/esters constituents eg, propylene glycol monocaprylate (C-8), capric acid (C-10), caprylic acid (C-8), linoleic acid (C-18), oleic acid (C-18), palmitic acid (C-16), ethyl oleate (C-18), and oils containing fatty acid/esters eg, coconut oil, mustard oil etc., were added to study the growth of the fungus (Kaw Bing CHUA, et al Malaysian J Pathol (2005) 27(2): 99). After solidification, agar plates were streaked with M. furfur innoculum adjusted to appropriate cfu/ml, aseptically. Positive control with 2% olive oil and negative control without fatty substance were also maintained.

C. albicans (ATCC-90028) = assay: Checkerboard assay on C. albicans (ATCC-90028); assay type: cell-based, Candida albicans; conditions: for MIC: Candida albicans, ATCC90028, agent alone, Table 8
Procedure: (§1) The synergy is measured by determining the fractional inhibitory concentration (FIC) value of the combination. This experimental set up, called checkerboard method, allows measurement of a desired effect (inhibition of fungal growth in this case) at different combinations of various concentrations of the two agents (antifungal agent and fatty acid/ester). […] No agent is added to the penultimate column on the right and the bottom row. The final column on the right is used for growth control (only inoculum in broth) and sterility control (broth alone, no inoculum). […] FIC value for each agent in a particular well of the checkerboard layout was calculated by dividing the agent concentration in that well by the established MIC value of the agent against the test organism (Hsieh et al., Synergy assessed by checkerboard: A critical Analysis, Diagn. Microbiol. Infect Dis. (1993) 16:343-349). FIC values for both agents in a particular well were calculated in this way followed by determination of the FIC index (sum of the FICs of each drug in the concerned well). […] Agents Chemother. (2010) 54(2): 602-609].
(§2) Using the checkerboard layout experimental setup described above (FIG. 1A), various medium-chain fatty acids were tested for their ability to potentiate the activity of a known antifungal agent. Concentrations above and below the MIC of each test agent were tested using serial dilution. The same procedure was expanded to test combinations of various medium-chain fatty acids C-1 to C-14 (such caprylic acid, undecylenic acid and lauric acid) and esters thereof, with antifungal agents from various classes including azoles, allylamines, benzylamines, zinc pyrithione and piroctone olamine against both susceptible and resistant Trichophyton spp. (filamentous fungus) and Candida spp. (yeast).
(§3) Potentiation of the activity of antimycotic agents using ester derivatives of medium chain fatty acids was tested in a standard, well accepted in vitro assay system to check for synergy. This experimental set up, called checkerboard method, allows measurement of a desired effect (inhibition of fungal growth in this case) at different combinations of various concentrations of two agents. A chosen medium chain fatty acid (C-1 to C-14) or its ester derivative was tested for its ability to potentiate the activity of a known antifungal agent (various classes) using the checkerboard layout. Various concentrations above and below the MIC of each test agent were tested using serial dilution in Sabouraud dextrose broth. […] FIC value for a drug in a particular well of the checkerboard layout is calculated by dividing the drug concentration in that well by the established MIC value of the drug against the test organism (Hsieh et al., Synergy assessed by checkerboard: A critical Analysis, Diagn. Microbiol. Infect Dis. (1993) 16:343-349). FIC values for both test agents in a particular well are calculated in this way followed by determination of the FIC index (sum of the FICs of each drug in the concerned well).

[1] = tested on: azole resistant C. albicans MTCC 227; assay: Checkerboard assay on azole resistant C. albicans MTCC 227; assay type: cell-based, Candida albicans; conditions: for MIC: Candida albicans, MTCC227, agent alone
Procedure: as §1, with “FIC” for “FIC value for each agent in a particular well of the checkerboard layout was calculated by dividing the agent concentration in that well by the established MIC value of the agent against the test organism (Hsieh et al., Synergy assessed by checkerboard: A critical Analysis, Diagn. Microbiol. Infect Dis. (1993) 16:343-349). FIC”, “Chemother.” for “Chemother. (2010) 54(2): 602-609].”
as §2
as §3, with “FIC” for “FIC value for a drug in a particular well of the checkerboard layout is calculated by dividing the drug concentration in that well by the established MIC value of the drug against the test organism (Hsieh et al., Synergy assessed by checkerboard: A critical Analysis, Diagn. Microbiol. Infect Dis. (1993) 16:343-349). FIC”

[2] = tested on: terbinafine resistant Trichophyton interdigitale (GTB-2S); assay: Checkerboard assay on terbinafine resistant Trichophyton interdigitale (GTB-2S); assay type: cell-based; conditions: for MIC: Trichophyton interdigitale
Procedure: as §1, with “FIC” for “FIC value for each agent in a particular well of the checkerboard layout was calculated by dividing the agent concentration in that well by the established MIC value of the agent against the test organism (Hsieh et al., Synergy assessed by checkerboard: A critical Analysis, Diagn. Microbiol. Infect Dis. (1993) 16:343-349). FIC”, “Chemother.” for “Chemother. (2010) 54(2): 602-609].”
as §2
as §3, with “FIC” for “FIC value for a drug in a particular well of the checkerboard layout is calculated by dividing the drug concentration in that well by the established MIC value of the drug against the test organism (Hsieh et al., Synergy assessed by checkerboard: A critical Analysis, Diagn. Microbiol. Infect Dis. (1993) 16:343-349). FIC”

[3] = agent's MIC in combination luliconazole + caprylic acid
[4] = agent's MIC in combination luliconazole + glyceryl monocaprylate
[5] = combination luliconazole + caprylic acid
[6] = combination luliconazole + glyceryl monocaprylate
[7] = in combination with caprylic acid
[8] = in combination with glyceryl monocaprylate
[9] = Table 9, caprylic acid (C8) series
[10] = antifungal in combination with caprylic acid
[11] = antifungal in combination with lauric acid
[12] = antifungal in combination with propylene glycol monocaprylate
[13] = antifungal in combination with undecylenic acid
[14] = agent's MIC in combination terbinafine or butenafine + caprylic acid
[15] = combination terbinafine or butenafine + caprylic acid
[16] = agent's MIC in combination terbinafine or butenafine + glyceryl monocaprylate
[17] = combination terbinafine or butenafine + glyceryl monocaprylate

SMILES: CCCCC/C=C\C/C=C\CCCCCCCC(=O)O [linoleic acid]
growth of M. furfur on culture media containing the fatty acid/ester or oil (M. furfur (MTCC 1374)): confluent growth

MIC (C. albicans (ATCC-90028)): 7.5 µg/mL
Combination MIC (C. albicans (ATCC-90028); [3]): 0.117 µg/mL
Combination MIC (C. albicans (ATCC-90028); [4]): 0.117 µg/mL
MIC [1, 9]: 8 µg/mL
MIC ([1]; Table 10, propylene glycol monocaprylate series): 8 µg/mL
MIC ([1]; Table 12, undecylenic acid (C11) series): 8 µg/mL
MIC ([1]; Table 13, lauric acid (C12) series): 8 µg/mL
Combination MIC ([1]; agent's MIC in combination antifungal + caprylic acid (partner: other agent of same combination no.)): 0.5 µg/mL
Combination MIC ([1]; agent's MIC in combination antifungal + lauric acid (partner: other agent of same combination no.)): 1 µg/mL
Combination MIC ([1]; agent's MIC in combination antifungal + propylene glycol monocaprylate (partner: other agent of same combination no.)): 0.5 µg/mL
Combination MIC ([1]; agent's MIC in combination antifungal + undecylenic acid (partner: other agent of same combination no.)): 1 µg/mL
SMILES: N#C/C(=C1/SC[C@@H](c2ccc(Cl)cc2Cl)S1)n1ccnc1 [Luliconazole]
FIC (C. albicans (ATCC-90028); [5]): 0.015
FIC (C. albicans (ATCC-90028); [6]): 0.0156
FIC index (C. albicans (ATCC-90028); [7]): 0.265
Interaction (C. albicans (ATCC-90028); [7]): Synergistic (Combinations that gave FIC indices less than 1 were designated “synergistic”)
FIC index (C. albicans (ATCC-90028); [8]): 0.0781
Interaction (C. albicans (ATCC-90028); [8]): Synergistic (Combinations that gave FIC indices less than 1 were designated “synergistic”)
FIC index [1, 10]: 0.3
Interaction [1, 10]: Synergistic (Combinations that gave FIC indices less than 1 were designated “synergistic”)
FIC index [1, 11]: 0.25
Interaction [1, 11]: Synergistic (Combinations that gave FIC indices less than 1 were designated “synergistic”)
FIC index [1, 12]: 0.187
Interaction [1, 12]: Synergistic (Combinations that gave FIC indices less than 1 were designated “synergistic”)
FIC index [1, 13]: 0.187
Interaction [1, 13]: Synergistic (Combinations that gave FIC indices less than 1 were designated “synergistic”)
FIC ([1]; combination antifungal + caprylic acid): 0.062
FIC ([1]; combination antifungal + lauric acid): 0.125
FIC ([1]; combination antifungal + propylene glycol monocaprylate): 0.0625
FIC ([1]; combination antifungal + undecylenic acid): 0.125

SMILES: CCCCCCCCCCCCCCCC(=O)O [palmitic acid]
growth of M. furfur on culture media containing the fatty acid/ester or oil (M. furfur (MTCC 1374)): confluent growth

MIC ([2]; agent alone, Table 7): 15.6 µg/mL
Combination MIC [2, 14]: 7.812 µg/mL
MIC (C. albicans (ATCC-90028)): 125 µg/mL
Combination MIC (C. albicans (ATCC-90028); [3]): 31.25 µg/mL
MIC [1, 9]: 250 µg/mL
SMILES: CCCCCCCC(=O)O [Caprylic acid]
FIC [2, 15]: 0.5
FIC (C. albicans (ATCC-90028); [5]): 0.25
growth of M. furfur on culture media containing the fatty acid/ester or oil (M. furfur (MTCC 1374)): no growth

MIC ([2]; agent alone, Table 7): 15.6 µg/mL
Combination MIC [2, 16]: 7.812 µg/mL
MIC (C. albicans (ATCC-90028)): 500 µg/mL
Combination MIC (C. albicans (ATCC-90028); [4]): 31.25 µg/mL
MIC ([1]; Table 11, glyceryl monocaprylate series): 1250 µg/mL
Combination MIC ([1]; agent's MIC in combination antifungal + glyceryl monocaprylate (partner: other agent of same combination no.)): 312.5 µg/mL
SMILES: CCCCCCCC(=O)OCC(O)CO (centres unmarked) [Glyceryl monocaprylate]
FIC [2, 17]: 0.5
FIC (C. albicans (ATCC-90028); [6]): 0.0625
FIC ([1]; combination antifungal + glyceryl monocaprylate): 0.25

SMILES: CCCCCCCCCC(=O)O [capric acid]
growth of M. furfur on culture media containing the fatty acid/ester or oil (M. furfur (MTCC 1374)): no growth

SMILES: CCCCCCCC/C=C\CCCCCCCC(=O)OCC [ethyl oleate]
growth of M. furfur on culture media containing the fatty acid/ester or oil (M. furfur (MTCC 1374)): confluent growth

MIC ([2]; agent alone, Table 7): 30 µg/mL
Agent MIC ([2]; agent alone, Table 7): 15 µg/mL
Combination MIC [2, 14]: 0.117 µg/mL
Combination MIC [2, 16]: 0.468 µg/mL
SMILES: CN(C/C=C/C#CC(C)(C)C)Cc1cccc2ccccc12 [Terbinafine]
FIC [2, 15]: 0.0078
FIC [2, 17]: 0.0312
FIC index [2, 7]: 0.5007
Interaction [2, 7]: Synergistic (Combinations that gave FIC indices less than 1 were designated “synergistic”)
FIC index [2, 8]: 0.531
Interaction [2, 8]: Synergistic (Combinations that gave FIC indices less than 1 were designated “synergistic”)
Interaction ([2]; in combination with propylene glycol monocaprylate): Synergistic (Combinations that gave FIC indices less than 1 were designated “synergistic”)

SMILES: CCCCCCCC/C=C\CCCCCCCC(=O)O [oleic acid]
growth of M. furfur on culture media containing the fatty acid/ester or oil (M. furfur (MTCC 1374)): confluent growth
